Reference: US9394263B2, “Substituted hetero-azepinones” (priority 2012, dated 2016)
Counter-ions that a name gives are not always drawn.

Molecular target: BIR2 domain of XIAP (Homo sapiens (Human), UniProt P98170, C202A/C213G)
Assay: TR-FRET assay for BIR2: inhibition of binding of XIAP BIR2 domain to Peptide A (SMAC-derived peptide);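 further: percent inhibition measured across a concentration series of each compound, from which the IC50 was derived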
Details: not given

BIR2 domain of XIAP, sequence (P98170 other isoform, or with tags, fused parts or gaps, stated change not applied): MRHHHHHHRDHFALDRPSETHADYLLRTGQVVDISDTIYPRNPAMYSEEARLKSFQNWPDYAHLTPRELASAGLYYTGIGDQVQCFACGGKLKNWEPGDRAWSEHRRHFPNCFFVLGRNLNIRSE

IC50	Structure (SMILES)
141 nM	CN[C@@H](C)C(=O)N[C@@H]1C(=O)N(Cc2c(OC)cnc3ccccc23)c2ccccc2OC12CCOCC2 [Example 1r]
65 nM	CN[C@@H](C)C(=O)N[C@@H]1C(=O)N(Cc2c(OC)ccc3cc(Br)ccc23)c2ccccc2OC12CCOCC2 [Example 1g]
118 nM	CN[C@@H](C)C(=O)N[C@@H]1C(=O)N(Cc2nn(-c3ccc(C(=O)O)cc3C#N)c3ccccc23)c2ccccc2O[C@H]1C [Example 80, 3-Cyano-4-(3-(((2S,3S)-2-methyl-3-((S)-2-(methylamino)propanamido)-4-oxo-3,4-dihydrobenzo[b][1,4]oxazepin-5(2H)-yl)methyl)-1H-indazol-1-yl)benzoic acid trifluoroacetate]
4360 nM	CN[C@@H](C)C(=O)N[C@H]1C(=O)N(Cc2c(OC)ccc3cc(Br)ccc23)c2ccccc2OC12CCOCC2 [Example 1f]

Same assay, conditions: read-out: BIR2 IC50

Structure (SMILES)	IC50
CN[C@@H](C)C(=O)N[C@H]1COc2ccccc2N(Cc2c(OC)ccc3cc(C(=O)OC)ccc23)C1=O [Example 31, Methyl 6-methoxy-5-(((S)-3-((S)-2-(methylamino)propanamido)-4-oxo-3,4-dihydrobenzo[b][1,4]oxazepin-5(2H)-yl)methyl)-2-naphthoate trifluoroacetate]	189 nM
CN[C@@H](C)C(=O)N[C@H]1COc2c(C(=O)O)cccc2N(Cc2c(OC)ccc3cc(C(=O)O)ccc23)C1=O [Example 52, (S)-5-((6-Carboxy-2-methoxynaphthalen-1-yl)methyl)-3-((S)-2-(methylamino)propanamido)-4-oxo-2,3,4,5-tetrahydrobenzo[b][1,4]oxazepine-9-carboxylic acid trifluoroacetate]	59 nM
CN[C@@H](C)C(=O)N[C@H]1COc2ccccc2N(Cc2c(OC)ccc3ccccc23)C1=O [Example 29b]	198 nM
CN[C@@H](C)C(=O)N[C@@H]1C(=O)N(Cc2c(OC)ccc3cc(Br)ccc23)c2ccc(C)cc2O[C@H]1C [Example 39, (S)-N-((2S,3S)-5-((6-Bromo-2-methoxynaphthalen-1-yl)methyl)-2,8-dimethyl-4-oxo-2,3,4,5-tetrahydrobenzo[b][1,4]oxazepin-3-yl)-2-(methylamino)propanamide trifluoroacetate]	54 nM
CN[C@@H](C)C(=O)N[C@H]1COc2ccccc2N(Cc2c(OC)ccc3cc(C(=O)O)ccc23)C1=O [Example 32, 6-Methoxy-5-(((S)-3-((S)-2-(methylamino)propanamido)-4-oxo-3,4-dihydrobenzo[b][1,4]oxazepin-5(2H)-yl)methyl)-2-naphthoic acid trifluoroacetate]	55 nM
CN[C@@H](C)C(=O)N[C@H]1COc2ccc(C(F)(F)F)cc2N(Cc2c(OC)ccc3cc(Br)ccc23)C1=O [Example 42, (S)-N-((S)-5-((6-Bromo-2-methoxynaphthalen-1-yl)methyl)-4-oxo-7-(trifluoromethyl)-2,3,4,5-tetrahydrobenzo[b][1,4]oxazepin-3-yl)-2-(methylamino)propanamide trifluoroacetate]	57 nM
CN[C@@H](C)C(=O)N[C@H]1COc2c(C(=O)NCCC(=O)O)cccc2N(Cc2c(OC)ccc3cc(Br)ccc23)C1=O [Example 50, 3-{[(S)-9-(6-Bromo-2-methoxy-naphthalen-1-ylmethyl)-74S)-2-methylamino-propionylamino)-8-oxo-6,7,8,9-tetrahydro-5-oxa-9-aza-benzocycloheptene-4-carbonyl]-amino}-propionic acid trifluoroacetate]	134 nM
CN[C@@H](C)C(=O)N[C@H]1COc2c(C(=O)NCc3ccc(C(=O)OC)cc3)cccc2N(Cc2c(OC)ccc3cc(Br)ccc23)C1=O [Example 51, 4-({[(S)-9-(6-Bromo-2-methoxy-naphthalen-1-ylmethyl)-7-((S)-2-methylamino-propionylamino)-8-oxo-6,7,8,9-tetrahydro-5-oxa-9-aza-benzocycloheptene-4-carbonyl]-amino}-methyl)-benzoic acid methyl ester]	410 nM
CN[C@@H](C)C(=O)N[C@H]1COc2ccccc2N(Cc2cccc(Cl)c2)C1=O [Example 46, (S)-N-((S)-5-(3-Chlorobenzyl)-4-oxo-2,3,4,5-tetrahydrobenzo[13,][1,4]oxazepin-3-yl)-2-(methylamino)propanamide]	3110 nM
CC[C@H](NCCO)C(=O)N[C@H]1COc2ccccc2N(Cc2c(OC)ccc3cc(Br)ccc23)C1=O [Example 83, (S)-N-((S)-5-((6-Bromo-2-methoxynaphthalen-1-yl)methyl)-4-oxo-2,3,4,5-tetrahydrobenzo[b][1,4]oxazepin-3-yl)-2-(2-hydroxyethylamino)butanamide trifluoroacetate]	44 nM
CN[C@@H](C)C(=O)N[C@H]1COc2c(cccc2C(F)(F)F)N(Cc2noc3ccccc23)C1=O [Example 90, (S)-N-((S)-5-(Benzo[d]isoxazol-3-ylmethyl)-4-oxo-9-(trifluoromethyl)-2,3,4,5-tetrahydrobenzo[b][1,4]oxazepin-3-yl)-2-(methylamino)propanamide hydrochloride]	490 nM
CCN[C@@H](C)C(=O)N[C@@H]1C(=O)N(Cc2c(C#N)n(-c3ccccc3C#N)c3ccccc23)c2ccccc2O[C@H]1C [Example 77, (S)-N-((2S,3S)-5-((2-Cyano-1-(2-cyanophenyl)-1H-indol-3-yl)methyl)-2-methyl-4-oxo-2,3,4,5-tetrahydrobenzo[b][1,4]oxazepin-3-yl)-2-(ethylamino)propanamide]	107 nM
CN[C@@H](C)C(=O)N[C@H]1COc2ccccc2N(Cc2cc(=O)n(C)c3ccc(F)cc23)C1=O [Example 61, (S)-N-((S)-5-((6-Fluoro-1-methyl-2-oxo-1,2-dihydroquinolin-4-yl)methyl)-4-oxo-2,3,4,5-tetrahydrobenzo[b][1,4]oxazepin-3-yl)-2-(methylamino)propanamide]	686 nM
CCN[C@@H](C)C(=O)N[C@@H]1C(=O)N(Cc2nn(-c3ccccc3C#N)c3ccccc23)c2ccccc2O[C@H]1C [Example 74, (2S)-N-((2S,3S)-5-((1-(2-Cyanophenyl)-1H-indazol-3-yl)methyl)-2-methyl-4-oxo-2,3,4,5-tetrahydrobenzo[b][1,4]oxazepin-3-yl)-2-(ethylamino)propanamide trifluoroacetate]	146 nM
CN[C@@H](C)C(=O)N[C@H]1COc2ccccc2N(Cc2nn(-c3ccccc3C#N)c3cc(Br)ccc23)C1=O [Example 72, (S)-N-((S)-5-((6-Bromo-1-(2-cyanophenyl)-1H-indazol-3-yl)methyl)-4-oxo-2,3,4,5-tetrahydrobenzo[b][1,4]oxazepin-3-yl)-2-(methylamino)propanamide trifluoroacetate]	281 nM
CN[C@@H](C)C(=O)N[C@H]1COc2c(C(=O)O)cccc2N(Cc2c(OC)ccc3cc(Br)ccc23)C1=O [Example 48, (S)-5-((6-bromo-2-methoxynaphthalen-1-yl)methyl)-3-((S)-2-(methylamino)propanamido)-4-oxo-2,3,4,5-tetrahydrobenzo[b][1,4]oxazepine-9-carboxylic acid trifluoroacetate]	89 nM
CN[C@@H](C)C(=O)N[C@H]1COc2c(C(=O)N3CCN(CCCO)CC3)cccc2N(Cc2ccc(Br)c3ccccc23)C1=O [Example 56, (S)-N-((S)-5-((4-Bromonaphthalen-1-yl)methyl)-9-(4-(3-hydroxypropyl)piperazine-1-carbonyl)-4-oxo-2,3,4,5-tetrahydrobenzo[b][1,4]oxazepin-3-yl)-2-(methylamino)propanamide]	1600 nM
CN[C@@H](C)C(=O)N[C@H]1COc2c(C(=O)N3CCN(CCO)CC3)cccc2N(Cc2ccc(Br)c3ccccc23)C1=O [Example 55, (S)-N-((S)-5-((4-Bromonaphthalen-1-yl)methyl)-9-(4-(2-hydroxyethyl)piperazine-1-carbonyl)-4-oxo-2,3,4,5-tetrahydrobenzo[b][1,4]oxazepin-3-yl)-2-(methylamino)propanamide]	957 nM
CN[C@@H](C)C(=O)N[C@@H]1C(=O)N(Cc2c(OC)ccc3cc(Br)ccc23)c2cc(C(F)(F)F)ccc2O[C@H]1C [Example 43, (S)-N-[(6S,7S)-9-(6-Bromo-2-methoxy-naphthalen-1-ylmethyl)-6-methyl-8-oxo-2-trifluoromethyl-6,7,8,9-tetrahydro-5-oxa-9-aza-benzocyclohepten-7-yl]-2-methylamino-propionamide trifluoroacetate]	92 nM
CN[C@@H](C)C(=O)N[C@H]1COc2c(C(=O)O)cccc2N(Cc2ccc(Br)c3ccccc23)C1=O [Example 54, (S)-5-((4-Bromonaphthalen-1-yl)methyl)-3-((S)-2-(methylamino)propanamido)-4-oxo-2,3,4,5-tetrahydrobenzo[b][1,4]oxazepine-9-carboxylic acid trifluoroacetate]	649 nM

Molecular target: BIR3 domain of XIAP (Homo sapiens (Human), UniProt P98170)
Sequence (P98170 241-356 with tags or gaps limits assumed): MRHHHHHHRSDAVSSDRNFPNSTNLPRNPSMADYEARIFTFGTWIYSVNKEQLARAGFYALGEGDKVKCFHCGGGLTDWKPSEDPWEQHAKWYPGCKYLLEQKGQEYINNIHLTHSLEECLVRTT
Assay: TR-FRET assay for BIR3: inhibition of binding of XIAP BIR3 domain to Peptide A (SMAC-derived peptide)
Details: not given

Structure (SMILES)	IC50
[2H]C([2H])([2H])N[C@@H](C)C(=O)N[C@@H]1C(=O)N(Cc2c(OC)ccc3cc(Br)ccc23)c2ccccc2OC12CCOCC2 [Example 19, (2S)-N-(5-((6-Bromo-2-methoxynaphthalen-1-yl)methyl)-(3S)-4-oxo-2′,3′,5′,6′-tetrahydro-3H-spiro[benzo[b][1,4]oxazepine-2,4′-pyran]-3-yl)-2-(methyl-d3-amino)propanamide hydrochloride]	22900 nM

Same assay, conditions: read-out: BIR3 IC50

IC50	Structure (SMILES)
> 50000 nM	CC[C@H](NC)C(=O)N[C@@H]1C(=O)N(Cc2c(OC)ccc3cc(Br)ccc23)c2ccc(F)cc2OC12CCOCC2 [Example 16, (2S)-N-(5-((6-Bromo-2-methoxynaphthalen-1-yl)methyl)-(3S)-8-fluoro-4-oxo-2′,3′,5′,6′-tetrahydro-3H-spiro[benzo[b][1,4]oxazepine-2,4′-pyran]-3-yl)-2-(methylamino)butanamide hydrochloride]
> 54800 nM	CCN[C@@H](C)C(=O)N[C@@H]1C(=O)N(Cc2c(C#N)n(-c3ccccc3C#N)c3ccccc23)c2ccccc2O[C@H]1C [Example 77, (S)-N-((2S,3S)-5-((2-Cyano-1-(2-cyanophenyl)-1H-indol-3-yl)methyl)-2-methyl-4-oxo-2,3,4,5-tetrahydrobenzo[b][1,4]oxazepin-3-yl)-2-(ethylamino)propanamide]
> 54800 nM	CCN[C@@H](C)C(=O)N[C@@H]1C(=O)N(Cc2nn(-c3ccccc3C#N)c3ccccc23)c2ccccc2O[C@H]1C [Example 74, (2S)-N-((2S,3S)-5-((1-(2-Cyanophenyl)-1H-indazol-3-yl)methyl)-2-methyl-4-oxo-2,3,4,5-tetrahydrobenzo[b][1,4]oxazepin-3-yl)-2-(ethylamino)propanamide trifluoroacetate]
> 54800 nM	CN[C@@H](C)C(=O)N[C@H]1COc2ccccc2N(Cc2nn(-c3ccccc3C#N)c3cc(Br)ccc23)C1=O [Example 72, (S)-N-((S)-5-((6-Bromo-1-(2-cyanophenyl)-1H-indazol-3-yl)methyl)-4-oxo-2,3,4,5-tetrahydrobenzo[b][1,4]oxazepin-3-yl)-2-(methylamino)propanamide trifluoroacetate]
> 54800 nM	CN[C@@H](C)C(=O)N[C@H]1CSc2c(NC(=O)COCCOC)cccc2N(Cc2cccc3ccccc23)C1=O [Example 22, (S)-N-{(R)-9-[2-(2-Methoxy-ethoxy)-acetylamino]-5-naphthalen-1-ylmethyl-4-oxo-2,3,4,5-tetrahydro-benzo[b][1,4]thiazepin-3-yl}-2-methylamino-propionamide hydrochloride]
